Tests used:
wild mustard = assay: Test D preemergence; assay type: in vivo, Sinapis arvensis; settings: Brassica, pre-emergence; for pest or weed control at 16 g/ha: 16 g ai/ha, scale 0 (no effect) to 100 (complete control), read-out: Plant response rating, Mustard, Wild; for pest or weed control at 31 g/ha: 31 g ai/ha; for pest or weed control at 62 g/ha: 62 g ai/ha; for pest or weed control at 125 g/ha: 125 g ai/ha
Source text: (§1) Seeds of plant species selected from bluegrass (annual bluegrass, Poa annua), blackgrass (Alopecurus myosuroides), canarygrass (littleseed canarygrass, Phalaris minor), chickweed (common chickweed, Stellaria media), galium (catchweed bedstraw, Galium aparine), bromegrass, downy (downy bromegrass, Bromus tectorum), field poppy (Papaver rhoeas), field violet (Viola arvensis), green foxtail (Setaria viridis), deadnettle (henbit deadnettle, Lamium amplexicaule), Italian ryegrass (Lolium multiflorum), kochia (Kochia scoparia), lambsquarters (Chenopodium album), oilseed rape (Brassica napus), pigweed (Amaranthus retroflexus), chamomile (scentless chamomile, Matricaria inodora), Russian thistle (Salsola kali), speedwell (bird's-eye speedwell, Veronica persica), spring barley (Hordeum vulgare), spring wheat (Triticum aestivum), wild buckwheat (Polygonum convolvulus), wild mustard (Sinapis arvensis), wild oat (Avena fatua), wild radish (Raphanus raphanistrum), windgrass (Apera spica-venti), winter barley (Hordeum vulgare), and winter wheat (Triticum aestivum) were planted into a silt loam soil and treated preemergence with test chemicals formulated in a non-phytotoxic solvent mixture which included a surfactant.
(§2) At the same time, these species were planted in pots containing Redi-Earth® planting medium (Scotts Company, 14111 Scottslawn Road, Marysville, Ohio 43041) comprising spaghnum peat moss, vermiculite, wetting agent and starter nutrients and treated with postemergence applications of the test chemicals formulated in the same manner. Plants ranged in height from 2 to 18 cm (1- to 4-leaf stage). Treated plants and controls were maintained in a controlled growth environment for 7 to 21 days after which time all species were compared to controls and visually evaluated. Plant response ratings, summarized in Table D, are based on a scale of 0 to 100 where 0 is no effect and 100 is complete control. A dash (-) response means no test result.

Italian ryegrass = assay: Test D postemergence; assay type: in vivo, Lolium multiflorum; settings: Lolium multiflorum, post-emergence; for pest or weed control at 16 g/ha: 16 g ai/ha, scale 0-100, read-out: Plant response rating, Ryegrass, Italian; for pest or weed control at 31 g/ha: 31 g ai/ha; for pest or weed control at 62 g/ha: 62 g ai/ha; for pest or weed control at 125 g/ha: 125 g ai/ha
Source text: as §1, §2

chickweed = assay: Test D preemergence; assay type: in vivo, Stellaria media; settings: Stellaria media, pre-emergence; for pest or weed control at 125 g/ha: 125 g ai/ha
Source text: as §1, §2

windgrass = assay: Test D postemergence; assay type: in vivo, Apera spica-venti; settings: Apera spica-venti, post-emergence; for pest or weed control at 16 g/ha: 16 g ai/ha, scale 0-100, read-out: Plant response rating, Windgrass; for pest or weed control at 31 g/ha: 31 g ai/ha; for pest or weed control at 62 g/ha: 62 g ai/ha; for pest or weed control at 125 g/ha: 125 g ai/ha
Source text: as §1, §2

bluegrass = assay: Test D postemergence; assay type: in vivo, Poa annua; settings: Poa annua, post-emergence, Postemergence, scale 0 to 100 (0 no effect, 100 complete control), read-out: Plant response rating, Bluegrass; for pest or weed control at 16 g/ha: 16 g ai/ha; for pest or weed control at 31 g/ha: 31 g ai/ha; for pest or weed control at 62 g/ha: 62 g ai/ha; for pest or weed control at 125 g/ha: 125 g ai/ha
Source text: as §1, §2

speedwell = assay: Test D preemergence; assay type: in vivo, Veronica persica; settings: Veronica persica, pre-emergence; for pest or weed control at 16 g/ha: 16 g ai/ha
Source text: as §1, §2

blackgrass = assay: Test D preemergence; assay type: in vivo, Alopecurus myosuroides; settings: Alopecurus myosuroides, pre-emergence; for pest or weed control at 16 g/ha: 16 g ai/ha, scale 0 (no effect) to 100 (complete control), read-out: Plant response rating, Blackgrass; for pest or weed control at 31 g/ha: 31 g ai/ha; for pest or weed control at 62 g/ha: 62 g ai/ha; for pest or weed control at 125 g/ha: 125 g ai/ha
Source text: as §1, §2

galium = assay: Test D preemergence; assay type: in vivo, Galium aparine; settings: Galium, pre-emergence; for pest or weed control at 16 g/ha: 16 g ai/ha, scale 0 (no effect) to 100 (complete control), read-out: Plant response rating, Galium; for pest or weed control at 31 g/ha: 31 g ai/ha; for pest or weed control at 62 g/ha: 62 g ai/ha; for pest or weed control at 125 g/ha: 125 g ai/ha
Source text: as §1, §2

[1] = scale 0-100, read-out: Plant response rating, Mustard, Wild
[2] = scale 0 to 100 (0 no effect, 100 complete control), read-out: Plant response rating, Ryegrass, Italian
[3] = scale 0-100, read-out: Plant response rating, Chickweed
[4] = scale 0 to 100 (0 no effect, 100 complete control), read-out: Plant response rating, Windgrass
[5] = scale 0 (no effect) to 100 (complete control), read-out: Plant response rating, Speedwell
[6] = scale 0-100, read-out: Plant response rating, Blackgrass
[7] = scale 0-100, read-out: Plant response rating, Galium

| Compound | pest or weed control at 16 g/ha (wild mustard) | pest or weed control at 31 g/ha (wild mustard; [1]) | pest or weed control at 62 g/ha (wild mustard; [1]) | pest or weed control at 125 g/ha (wild mustard; [1]) | pest or weed control at 16 g/ha (Italian ryegrass) | pest or weed control at 31 g/ha (Italian ryegrass; [2]) | pest or weed control at 62 g/ha (Italian ryegrass; [2]) | pest or weed control at 125 g/ha (Italian ryegrass; [2]) | pest or weed control at 125 g/ha (chickweed; [3]) | pest or weed control at 16 g/ha (windgrass) | pest or weed control at 31 g/ha (windgrass; [4]) | pest or weed control at 62 g/ha (windgrass; [4]) | pest or weed control at 125 g/ha (windgrass; [4]) | pest or weed control at 16 g/ha (bluegrass) | pest or weed control at 31 g/ha (bluegrass) | pest or weed control at 62 g/ha (bluegrass) | pest or weed control at 125 g/ha (bluegrass) | pest or weed control at 16 g/ha (speedwell; [5]) | pest or weed control at 16 g/ha (blackgrass) | pest or weed control at 31 g/ha (blackgrass; [6]) | further results |
| --- | --- | --- | --- | --- | --- | --- | --- | --- | --- | --- | --- | --- | --- | --- | --- | --- | --- | --- | --- | --- | --- |
| FC(F)(F)c1cnn(-c2ccccc2Oc2ncc(Br)cn2)c1 [Compound 18, 5-bromo-2-[2-[4-(trifluoromethyl)-1H-pyrazol-1-yl]phenoxy]pyrimidine] | 80% | 85% | 100% | 90% | 5% | 5% | 5% | 10% | 90% | 5% | 10% | 10% | 10% | 15% | 25% | 30% | 40% | 50% | 0% | 5% | pest or weed control at 250 g/ha (wild mustard; 250 g ai/ha, scale 0-100, read-out: Plant response rating, Mustard, Wild): 100%; pest or weed control at 250 g/ha (Italian ryegrass; 250 g ai/ha, scale 0 to 100 (0 no effect, 100 complete control), read-out: Plant response rating, Ryegrass, Italian): 15%; pest or weed control at 250 g/ha (chickweed; 250 g ai/ha, scale 0-100, read-out: Plant response rating, Chickweed): 100%; pest or weed control at 250 g/ha (windgrass; 250 g ai/ha, scale 0 to 100 (0 no effect, 100 complete control), read-out: Plant response rating, Windgrass): 10%; pest or weed control at 250 g/ha (bluegrass; 250 g ai/ha): 40%; pest or weed control at 62 g/ha (blackgrass; [6]): 50%; pest or weed control at 125 g/ha (blackgrass; [6]): 100%; pest or weed control at 250 g/ha (blackgrass; 250 g ai/ha, scale 0-100, read-out: Plant response rating, Blackgrass): 100%; pest or weed control at 16 g/ha (galium): 0%; pest or weed control at 31 g/ha (galium; [7]): 15%; pest or weed control at 62 g/ha (galium; [7]): 80%; pest or weed control at 125 g/ha (galium; [7]): 100%; pest or weed control at 250 g/ha (galium; 250 g ai/ha, scale 0-100, read-out: Plant response rating, Galium): 100% |
| FC(F)(F)COc1cnn(-c2ccccc2Oc2ncc(Cl)cn2)c1 [Compound 138, 5-chloro-2-[2-[4-(2,2,2-trifluoroethoxy)-1H-pyrazol-1-yl]phenoxy]pyrimidine] | 55% | 65% | 100% | 100% | 5% | 0% | 0% | 5% | 100% | 0% | 0% | 15% | 20% | 0% | 5% | 5% | 10% | 70% | 0% | 0% | pest or weed control at 16 g/ha (chickweed; 16 g ai/ha, scale 0 (no effect) to 100 (complete control), read-out: Plant response rating, Chickweed): 100%; pest or weed control at 31 g/ha (chickweed; 31 g ai/ha, scale 0-100, read-out: Plant response rating, Chickweed): 100%; pest or weed control at 62 g/ha (chickweed; 62 g ai/ha, scale 0-100, read-out: Plant response rating, Chickweed): 100%; pest or weed control at 31 g/ha (speedwell; 31 g ai/ha, scale 0 (no effect) to 100 (complete control), read-out: Plant response rating, Speedwell): 100%; pest or weed control at 62 g/ha (speedwell; 62 g ai/ha, scale 0-100, read-out: Plant response rating, Speedwell): 100%; pest or weed control at 125 g/ha (speedwell; 125 g ai/ha, scale 0-100, read-out: Plant response rating, Speedwell): 100%; pest or weed control at 62 g/ha (blackgrass; [6]): 25%; pest or weed control at 125 g/ha (blackgrass; [6]): 30%; pest or weed control at 16 g/ha (galium): 25%; pest or weed control at 31 g/ha (galium; [7]): 40%; pest or weed control at 62 g/ha (galium; [7]): 90%; pest or weed control at 125 g/ha (galium; [7]): 100% |

Source: patent publication US9695155B2, “Herbicidal substituted pyrimidinyloxy benzene compounds” (E. I. DU PONT DE NEMOURS AND COMPANY, priority 2013, dated 2017)
